Our source for the TGI values is PubChem BioAssay (NCI).

Some test systems named below: CCRF-CEM leukemia; HCC-2998 colon; HCT-116 colon; HL-60(TB) leukemia; M14 melanoma; MALME-3M melanoma; MDA-MB-231 breast; MOLT-4 leukemia; OVCAR-3 ovarian; SK-OV-3 ovarian; UO-31 renal; T-47D breast.
What all share (experiment): NCI-60 cell line screen, 48 h

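Tested at 5 concentrations; 48 h exposure; 96-well plates; endpoints linearly interpolated, else capped at highest concentration. Definition used: TGI = concentration required for complete inhibition of growth.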 Some results are limits rather than exact numbers.

Turning to `COC(=O)CC1(O)C(C=C(C)C)C(C(=O)OC)C(=O)C(C(=O)OC)C1C(=O)OC` (stereo not given), the TGI in the assay with CCRF-CEM leukemia, in the assay with HCC-2998 colon, in the assay with HCT-116 colon, in the assay with HL-60(TB) leukemia, in the assay with M14 melanoma and with MALME-3M melanoma was greater than 100 µM throughout. For the same compound, the TGI in the assay with MDA-MB-231 breast, in the assay with MOLT-4 leukemia, in the assay with OVCAR-3 ovarian, with SK-OV-3 ovarian and with UO-31 renal was greater than 100 µM in each case.

Turning to `Cn1c2ccccc2n2c3ccccc3c(=S)c(C#N)c12`, the TGI in the assay with CCRF-CEM leukemia, in the assay on HCC-2998 colon, with HCT-116 colon, in the assay with HL-60(TB) leukemia, in the assay on M14 melanoma and in the assay with MOLT-4 leukemia was greater than 100 µM in each case. Further, the TGI in the assay with OVCAR-3 ovarian, with SK-OV-3 ovarian and in the assay on UO-31 renal was greater than 100 µM in each case.

Consider `N#Cc1nc(Cc2ccccc2)oc1N`, for which the TGI with CCRF-CEM leukemia, in the assay with HCT-116 colon, in the assay on M14 melanoma, with MALME-3M melanoma, with MDA-MB-231 breast and with MOLT-4 leukemia was greater than 100 µM throughout. In addition, the TGI in the assay with OVCAR-3 ovarian, in the assay with SK-OV-3 ovarian, in the assay on T-47D breast and with UO-31 renal was greater than 100 µM each time.

On to `N#Cc1nsnc1-c1nc(-c2nsnc2C#N)nc(-c2nsnc2C#N)n1`, for which the TGI in the assay on HCC-2998 colon, with HCT-116 colon, with HL-60(TB) leukemia, in the assay with MALME-3M melanoma, in the assay on MDA-MB-231 breast and with MOLT-4 leukemia was greater than 100 µM in each case. Further, the TGI in the assay with OVCAR-3 ovarian and in the assay with UO-31 renal was greater than 100 µM in each case.

For the compound `COc1ccc(NC(C)=O)c(C(=O)CCNC(C)=O)c1`, the TGI in the assay on CCRF-CEM leukemia, in the assay on HCT-116 colon, in the assay on HL-60(TB) leukemia, in the assay with M14 melanoma, in the assay with MDA-MB-231 breast and in the assay on MOLT-4 leukemia was greater than 100 µM throughout. Further, the TGI in the assay with OVCAR-3 ovarian, in the assay on SK-OV-3 ovarian, in the assay on T-47D breast and with UO-31 renal was greater than 100 µM in each case.

Regarding `Cc1ccc(-c2c(C#N)c(S)n(NS(=O)(=O)c3ccccc3)c(=O)c2C#N)cc1`, the TGI was greater than 100 µM in the assay with CCRF-CEM leukemia; greater than 100 µM with HCC-2998 colon; greater than 100 µM in the assay on HCT-116 colon; 41.9 µM in the assay with HL-60(TB) leukemia; greater than 100 µM with M14 melanoma; greater than 100 µM in the assay with MALME-3M melanoma. The TGI in the assay on MDA-MB-231 breast is greater than 100 µM; with MOLT-4 leukemia, 61.1 µM; in the assay with OVCAR-3 ovarian, greater than 100 µM; with SK-OV-3 ovarian, greater than 100 µM; in the assay with UO-31 renal it was 51.4 µM.

As to `c1ccc(-c2cc(-c3cc(-c4ccccc4)n[nH]3)[nH]n2)cc1`, the TGI with CCRF-CEM leukemia, with HCC-2998 colon, in the assay on HCT-116 colon, with M14 melanoma, in the assay on MALME-3M melanoma and in the assay on MDA-MB-231 breast was greater than 100 µM each time. Moreover, the TGI in the assay with MOLT-4 leukemia, in the assay with OVCAR-3 ovarian, in the assay with SK-OV-3 ovarian, in the assay with T-47D breast and in the assay on UO-31 renal was greater than 100 µM in each case.

Regarding `CSc1nc(-c2cc3c(c(SC)n2)CCC3)cc2c1CCC2`, the TGI with CCRF-CEM leukemia, in the assay on HCC-2998 colon, with HCT-116 colon, with HL-60(TB) leukemia, with M14 melanoma and in the assay with MDA-MB-231 breast was greater than 100 µM in each case. In addition, the TGI with MOLT-4 leukemia, in the assay on OVCAR-3 ovarian, in the assay on SK-OV-3 ovarian and in the assay with UO-31 renal was greater than 100 µM in each case.

With `CCOP(=O)(OCC)C(Cc1ccccc1)N=C(c1ccccc1)c1ccccc1` (stereo not given), the TGI is 37.1 µM in the assay on CCRF-CEM leukemia; 30.8 µM with HCT-116 colon; greater than 100 µM with HL-60(TB) leukemia; 30.4 µM in the assay with M14 melanoma; 40.9 µM in the assay on MALME-3M melanoma; 25.8 µM in the assay on MOLT-4 leukemia. Moreover, the TGI in the assay with OVCAR-3 ovarian is 30.3 µM; with SK-OV-3 ovarian, 28.5 µM; in the assay with T-47D breast, 26.6 µM; in the assay on UO-31 renal, 24.4 µM.

`O=[N+]([O-])C(=C/C1CCCCC1)/C(=C\C1CCCCC1)[N+](=O)[O-]`: the TGI in the assay with CCRF-CEM leukemia was found to be 17.7 µM; in the assay with HCC-2998 colon it was 36.4 µM; in the assay on HCT-116 colon, 17.7 µM; with M14 melanoma, 22.3 µM; in the assay on MALME-3M melanoma, 6.69 µM; in the assay on MDA-MB-231 breast it was 8.98 µM. The TGI in the assay with MOLT-4 leukemia was greater than 26.1 µM; in the assay with OVCAR-3 ovarian, 31.6 µM; in the assay with SK-OV-3 ovarian it was 42.7 µM; in the assay with T-47D breast, 38 µM; with UO-31 renal, 22.4 µM.

Take `O=C(c1ccc(Cl)cc1)N(C(=S)N1CCN(c2ccccc2)CC1)c1ccccc1`: the TGI in the assay with CCRF-CEM leukemia, in the assay on HCT-116 colon, in the assay on HL-60(TB) leukemia, in the assay with M14 melanoma, with MALME-3M melanoma and with MOLT-4 leukemia was greater than 100 µM throughout. Moreover, the TGI with OVCAR-3 ovarian, with SK-OV-3 ovarian and in the assay with UO-31 renal was greater than 100 µM throughout.

Take `O=C(/C(Cl)=C/c1ccccc1)c1ccccc1`: the TGI in the assay on CCRF-CEM leukemia stood at 11.5 µM; in the assay on HCC-2998 colon, 12.9 µM; with HCT-116 colon it was 2.78 µM; with M14 melanoma, 4.98 µM; with MALME-3M melanoma it was 4.39 µM; in the assay with MDA-MB-231 breast, 20.6 µM. Moreover, the TGI in the assay on MOLT-4 leukemia is greater than 21.3 µM; in the assay with OVCAR-3 ovarian it was 8.36 µM; in the assay on SK-OV-3 ovarian, 39.8 µM; in the assay on T-47D breast, 27.1 µM; in the assay with UO-31 renal it was 5.49 µM.

Consider `CCCC(=O)N[C@@H](Cc1cc(I)c(O)c(I)c1)C(=O)NCCCNCCCCNCCCNC(=O)[C@@H](N)CCCN=C(N)N`, for which the TGI in the assay with CCRF-CEM leukemia, in the assay on HCC-2998 colon, in the assay with HCT-116 colon, in the assay with HL-60(TB) leukemia, in the assay with M14 melanoma and in the assay on MALME-3M melanoma was greater than 100 µM each time. Further, the TGI with MOLT-4 leukemia, in the assay on OVCAR-3 ovarian and in the assay on UO-31 renal was greater than 100 µM each time.
